A word on the Ki: it is the equilibrium dissociation constant of an inhibitor or competing ligand from its target. Higher therefore signals a looser hold on the target.

The target of this test is CB2 (cannabinoid receptor subtype 2) (Homo sapiens, UniProt P34972). Format: binding.
Chain of CB2 (cannabinoid receptor subtype 2) (P34972 whole entry): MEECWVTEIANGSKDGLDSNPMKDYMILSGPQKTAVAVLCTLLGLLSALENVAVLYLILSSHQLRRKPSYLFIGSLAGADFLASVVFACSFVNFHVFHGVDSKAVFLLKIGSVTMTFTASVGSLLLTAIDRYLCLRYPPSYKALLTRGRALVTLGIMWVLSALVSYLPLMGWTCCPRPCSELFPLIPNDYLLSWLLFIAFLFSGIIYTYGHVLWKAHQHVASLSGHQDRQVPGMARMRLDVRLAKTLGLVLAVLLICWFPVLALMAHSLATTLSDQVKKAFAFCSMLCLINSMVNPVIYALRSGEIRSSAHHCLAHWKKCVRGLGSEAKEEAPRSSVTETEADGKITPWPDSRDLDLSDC

For the compound `O=C1c2ccccc2NC(=N/N=C/c2cccs2)[C@@H]2CCCN12` [4g, (S,E)-11-[2-(2-thiophenylmethylene)hydrazono]-pyrrolo[2,1-c][1,4]benzodiazepine], the affinity, expressed as Ki, was 490 nM. In other words, the sub-micromolar range.
To `O=C1c2ccccc2NC(=N/N=C/c2c[nH]c3ccccc23)[C@@H]2CCCN12` [4h, (S,E)-11-[2-(3-indolylmethylene)hydrazono]-pyrrolo[2,1-c][1,4]benzodiazepine] belongs 4700 nM.
